Assays:
Experiment in all cases: relative viability (nuclei count vs DMSO), 5 days (fraction); higher = more cells survive
NCI-H520 = test system: NCI-H520
Method in brief: (§1)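 Dosing by pin tool came one day after lung cancer cell lines were seeded in 1536-well plates, using either one drug or a fixed anchor-drug dose plus five library-drug doses (not always all listed) in √10 steps. After 5 days, nuclei were counted on 4× images. Relative viability is treated-well nuclei count divided by vehicle-well nuclei count, and values are medians of duplicate plates.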

NCI-H441 = test system: NCI-H441
Method in brief: as §1

H3255 = test system: H3255
Method in brief: as §1

ChaGo-K-1 = test system: ChaGo-K-1
Method in brief: as §1

RERF-LC-KJ = test system: RERF-LC-KJ
Method in brief: as §1

NCI-H2087 = test system: NCI-H2087
Method in brief: as §1

NCI-H1355 = test system: NCI-H1355
Method in brief: as §1

LC-2-ad = test system: LC-2-ad
Method in brief: as §1

NCI-H23 = test system: NCI-H23
Method in brief: as §1

NCI-H1651 = test system: NCI-H1651
Method in brief: as §1

LCLC-103H = test system: LCLC-103H
Method in brief: as §1

COR-L 105 = test system: COR-L 105
Method in brief: as §1

NCI-H2126 = test system: NCI-H2126
Method in brief: as §1

NCI-H322M = test system: NCI-H322M
Method in brief: as §1

NCI-H647 = test system: NCI-H647
Method in brief: as §1

NCI-H2085 = test system: NCI-H2085
Method in brief: as §1

COR-L23 = test system: COR-L23
Method in brief: as §1

NCI-H1993 = test system: NCI-H1993
Method in brief: as §1

201T = test system: 201T
Method in brief: as §1

HOP-62 = test system: HOP-62
Method in brief: as §1

NCI-H2342 = test system: NCI-H2342
Method in brief: as §1

SK-MES-1 = test system: SK-MES-1
Method in brief: as §1

A-427 = test system: A-427
Method in brief: as §1

HCC-44 = test system: HCC-44
Method in brief: as §1

NCI-H1915 = test system: NCI-H1915
Method in brief: as §1

Q: Which relative viability (NCI-H520; first compound 0.253 µM) does the source give for `Nc1cccc2c1CN(C1CCC(=O)NC1=O)C2=O` (stereo unspecified) [Lenalidomide] + N=C(N)NC(=N)NCCc1ccccc1 [Phenformin] (partner 250 µM) here?
A: 0.579

Q: What about the relative viability (NCI-H520; first compound 0.8 µM) of the same compound?
A: 0.481

Q: And the relative viability (NCI-H520; first compound 2.53 µM)?
A: 0.658

Q: And the relative viability (NCI-H520; first compound 8 µM)?
A: 0.257

Q: And the relative viability (NCI-H441; first compound 0.253 µM)?
A: 0.827

Q: What about the relative viability (NCI-H441; first compound 0.8 µM) of the same compound?
A: 0.958

Q: What about the relative viability (NCI-H441; first compound 2.53 µM) of the same compound?
A: 0.949

Q: And the relative viability (NCI-H441; first compound 8 µM)?
A: 0.613

Q: And the relative viability (H3255; first compound 0.253 µM)?
A: 0.331

Q: And the relative viability (H3255; first compound 0.8 µM)?
A: 0.38

Q: What about the relative viability (H3255; first compound 2.53 µM) of the same compound?
A: 0.329

Q: What about the relative viability (H3255; first compound 8 µM) of the same compound?
A: 0.386

Q: And the relative viability (ChaGo-K-1; first compound 0.253 µM)?
A: 0.497

Q: And the relative viability (ChaGo-K-1; first compound 0.8 µM)?
A: 0.459

Q: And the relative viability (ChaGo-K-1; first compound 2.53 µM)?
A: 0.636

Q: What about the relative viability (ChaGo-K-1; first compound 8 µM) of the same compound?
A: 0.478

Q: What about the relative viability (RERF-LC-KJ; first compound 0.253 µM) of the same compound?
A: 0.403

Q: And the relative viability (RERF-LC-KJ; first compound 0.8 µM)?
A: 0.463

Q: And the relative viability (RERF-LC-KJ; first compound 2.53 µM)?
A: 0.431

Q: And the relative viability (RERF-LC-KJ; first compound 8 µM)?
A: 0.441

Q: And the relative viability (NCI-H2087; first compound 0.253 µM)?
A: 0.416

Q: And the relative viability (NCI-H2087; first compound 0.8 µM)?
A: 0.372

Q: What about the relative viability (NCI-H2087; first compound 2.53 µM) of the same compound?
A: 0.505

Q: And the relative viability (NCI-H2087; first compound 8 µM)?
A: 0.477

Q: What about the relative viability (NCI-H1355; first compound 0.253 µM) of the same compound?
A: 0.485

Q: What about the relative viability (NCI-H1355; first compound 2.53 µM) of the same compound?
A: 0.462

Q: What about the relative viability (NCI-H1355; first compound 8 µM) of the same compound?
A: 0.399

Q: What about the relative viability (LC-2-ad; first compound 0.253 µM) of the same compound?
A: 0.567

Q: What about the relative viability (LC-2-ad; first compound 2.53 µM) of the same compound?
A: 0.64

Q: And the relative viability (LC-2-ad; first compound 8 µM)?
A: 0.585

Q: What about the relative viability (NCI-H23; first compound 0.253 µM) of the same compound?
A: 0.733

Q: What about the relative viability (NCI-H23; first compound 0.8 µM) of the same compound?
A: 0.695

Q: What about the relative viability (NCI-H23; first compound 2.53 µM) of the same compound?
A: 0.889

Q: What about the relative viability (NCI-H23; first compound 8 µM) of the same compound?
A: 0.729

Q: And the relative viability (NCI-H1651; first compound 0.253 µM)?
A: 0.301

Q: What about the relative viability (NCI-H1651; first compound 0.8 µM) of the same compound?
A: 0.351

Q: And the relative viability (NCI-H1651; first compound 2.53 µM)?
A: 0.493

Q: What about the relative viability (NCI-H1651; first compound 8 µM) of the same compound?
A: 0.337

Q: And the relative viability (LCLC-103H; first compound 0.253 µM)?
A: 0.364

Q: What about the relative viability (LCLC-103H; first compound 0.8 µM) of the same compound?
A: 0.327

Q: What about the relative viability (LCLC-103H; first compound 2.53 µM) of the same compound?
A: 0.352

Q: What about the relative viability (LCLC-103H; first compound 8 µM) of the same compound?
A: 0.257

Q: And the relative viability (COR-L 105; first compound 0.253 µM)?
A: 0.464

Q: And the relative viability (COR-L 105; first compound 0.8 µM)?
A: 0.523

Q: And the relative viability (COR-L 105; first compound 2.53 µM)?
A: 0.554

Q: And the relative viability (COR-L 105; first compound 8 µM)?
A: 0.513

Q: And the relative viability (NCI-H2126; first compound 0.253 µM)?
A: 0.552

Q: What about the relative viability (NCI-H2126; first compound 0.8 µM) of the same compound?
A: 0.517

Q: What about the relative viability (NCI-H2126; first compound 2.53 µM) of the same compound?
A: 0.531

Q: What about the relative viability (NCI-H2126; first compound 8 µM) of the same compound?
A: 0.458

Q: What about the relative viability (NCI-H322M; first compound 0.253 µM) of the same compound?
A: 0.801

Q: And the relative viability (NCI-H322M; first compound 0.8 µM)?
A: 0.894

Q: What about the relative viability (NCI-H322M; first compound 2.53 µM) of the same compound?
A: 0.863

Q: And the relative viability (NCI-H322M; first compound 8 µM)?
A: 0.846

Q: And the relative viability (NCI-H647; first compound 0.253 µM)?
A: 0.438

Q: What about the relative viability (NCI-H647; first compound 0.8 µM) of the same compound?
A: 0.487

Q: What about the relative viability (NCI-H647; first compound 2.53 µM) of the same compound?
A: 0.703

Q: And the relative viability (NCI-H647; first compound 8 µM)?
A: 0.581

Q: What about the relative viability (NCI-H2085; first compound 0.253 µM) of the same compound?
A: 0.604

Q: And the relative viability (NCI-H2085; first compound 0.8 µM)?
A: 0.653

Q: What about the relative viability (NCI-H2085; first compound 2.53 µM) of the same compound?
A: 0.827

Q: And the relative viability (NCI-H2085; first compound 8 µM)?
A: 0.562

Q: And the relative viability (COR-L23; first compound 0.253 µM)?
A: 0.412

Q: And the relative viability (COR-L23; first compound 0.8 µM)?
A: 0.412

Q: What about the relative viability (COR-L23; first compound 2.53 µM) of the same compound?
A: 0.508

Q: What about the relative viability (COR-L23; first compound 8 µM) of the same compound?
A: 0.45

Q: What about the relative viability (NCI-H1993; first compound 0.253 µM) of the same compound?
A: 0.429

Q: And the relative viability (NCI-H1993; first compound 0.8 µM)?
A: 0.553

Q: What about the relative viability (NCI-H1993; first compound 2.53 µM) of the same compound?
A: 0.551

Q: And the relative viability (NCI-H1993; first compound 8 µM)?
A: 0.516

Q: And the relative viability (201T; first compound 0.253 µM)?
A: 0.448

Q: What about the relative viability (201T; first compound 2.53 µM) of the same compound?
A: 0.444

Q: What about the relative viability (201T; first compound 8 µM) of the same compound?
A: 0.404

Q: What about the relative viability (HOP-62; first compound 0.253 µM) of the same compound?
A: 0.611

Q: And the relative viability (HOP-62; first compound 0.8 µM)?
A: 0.733

Q: What about the relative viability (HOP-62; first compound 2.53 µM) of the same compound?
A: 0.736

Q: What about the relative viability (HOP-62; first compound 8 µM) of the same compound?
A: 0.705

Q: And the relative viability (NCI-H2342; first compound 0.253 µM)?
A: 0.637

Q: And the relative viability (NCI-H2342; first compound 0.8 µM)?
A: 0.551

Q: What about the relative viability (NCI-H2342; first compound 2.53 µM) of the same compound?
A: 0.628

Q: What about the relative viability (NCI-H2342; first compound 8 µM) of the same compound?
A: 0.505

Q: What about the relative viability (SK-MES-1; first compound 0.253 µM) of the same compound?
A: 0.556

Q: What about the relative viability (SK-MES-1; first compound 0.8 µM) of the same compound?
A: 0.678

Q: And the relative viability (SK-MES-1; first compound 2.53 µM)?
A: 0.678

Q: What about the relative viability (SK-MES-1; first compound 8 µM) of the same compound?
A: 0.773

Q: And the relative viability (A-427; first compound 0.253 µM)?
A: 0.317

Q: What about the relative viability (A-427; first compound 0.8 µM) of the same compound?
A: 0.324

Q: What about the relative viability (A-427; first compound 2.53 µM) of the same compound?
A: 0.421

Q: And the relative viability (A-427; first compound 8 µM)?
A: 0.311

Q: What about the relative viability (HCC-44; first compound 0.253 µM) of the same compound?
A: 0.272

Q: What about the relative viability (HCC-44; first compound 2.53 µM) of the same compound?
A: 0.184

Q: What about the relative viability (HCC-44; first compound 8 µM) of the same compound?
A: 0.216

Q: And the relative viability (NCI-H1915; first compound 0.253 µM)?
A: 0.358

Q: What about the relative viability (NCI-H1915; first compound 0.8 µM) of the same compound?
A: 0.373

Q: And the relative viability (NCI-H1915; first compound 2.53 µM)?
A: 0.401

Q: What about the relative viability (NCI-H1915; first compound 8 µM) of the same compound?
A: 0.406

Reference: the supplement of paper PMC10307832
